According to patent EP0263968A2, “Use of opiate antagonists in the manufacture of agents for the diagnosis and therapy of hypothalamic function disorders” (Ferring Arzneimittel GmbH, priority 1986, dated 1988):

Key:
Gonadotropine = experiment: Diagnostic test: intravenous naloxone in secondary and primary amenorrhoea; assay type: in vivo
Text: Somit zeigt dieser diagnostische Test, daß bei den Fällen von sekundärer Amenorrhoe die Suppression der Gonadotropine im Serum auf einer erhöhten endogenen Opiataktivität beruht, die therapeutisch durch den längerfristigen Einsatz von Antagonisten gedämpft werden kann.

[1] = system: Patientinnen mit hypothalamischer Amenorrhoe; experiment: Continuous naloxone infusion in patients with hypothalamic amenorrhoea; assay type: in vivo; conditions: duration 6 to 52 hours
Text: Im Rahmen der vorliegenden Erfindung wurden Untersuchungen an Patientinnen mit hypothalamischer Amenorrhoe durchgeführt. Diese Untersuchungen haben überraschenderweise gezeigt, daß durch die Gabe von Opiat-Antagonisten eine Zunahme von Frequenz und Amplitude der LH und FSH Sekretion erreicht wird. Es kann daher davon ausgegangen werden, daß die endogene GnRH Sekretion durch Opiat-Antagonisten vermehrt wird.
Beispielsweise wurde Naloxon bei Patientinnen mit hypothalamischer Amenorrhoe infundiert. Die Infusionsdauer betrug 6 bis 52 Stunden.

[2] = system: Patientinnen mit normalem Zyklus; experiment: Naltrexone administration to patients with normal cycle; assay type: in vivo
Text: Es ergibt sich daher die Möglichkeit, Opiat-Antagonisten zur Diagnose und Therapie hypothalamischer Funktionsstörungen einzusetzen, insbesondere bei solchen, bei denen zu vermuten ist, daß eine Hemmung der entsprechenden Partialfunktion durch vermehrt gebildete Endorphine verursacht ist.

[3] = oral administration possible; cited from earlier work
[4] = system: Patientinnen mit hypothalamischer Amenorrhoe; experiment: Oral naltrexone treatment of patients with hypothalamic amenorrhoea (serial blood sampling, ultrasound); assay type: in vivo
Protocol: Die basale Gonadotropin Sekretion von Patientinnen, die an hypothalamischer Amenorrhoe litten, wurde durch Bestimmung von LH und FSH, Prolactin und Ovarien-Steroiden in Blutproben bewertet, die alle zehn Minuten während 24 Stunden entnommen wurden. Naltrexon wurde dann in einer Dosis von 50 mg pro Tag während 24 oder 28 Tagen verabreicht. 5 Tage und 14 Tage nach dem Beginn der Naltrexonverabreichung wurden wiederholte Blutproben entnommen. An den übrigen Tagen wurden täglich Blutproben entnommen und es wurde eine Ultraschalluntersuchung nach der Naltrexonverabreichung sowie einige Tage danach durchgeführt. Es wurden folgende Ergebnisse ermittelt:
Auf die Verabreichung von Naltrexon folgte eine Zunahme der Frequenz und der Amplitude der pulsatielen Gonadotropin Sekretion sowie eine Zunahme der mittleren LH und FSH Serumkonzentration sowie der Entwicklung der Gonaden-Steroid Sekretion und der Follikel, was durch Ultraschall festgestellt wurde.

[5] = 50 mg per day for 24 or 28 days
[6] = patients with hypothalamic amenorrhoea

| Compound | Anstieg der Gonadotropine (Gonadotropine; some cases of primary amenorrhoea) | Anstieg der Gonadotropine (Gonadotropine; some cases of secondary amenorrhoea) | Frequenz und Amplitude der LH und FSH Sekretion [1] | Ablauf des Zyklus [2] | Sekretion der gonadotropen Hormone [2] | Verweildauer im Plasma [3] | Frequenz und Amplitude der pulsatielen Gonadotropin Sekretion [4, 5] | mittlere LH und FSH Serumkonzentration [4, 5] | Patientinnen, die ovulierten ([4]; 50 mg per day for 24 or 28 days, 3 patients) | Menstruation nach Absetzen des Mittels ([4]; 50 mg per day for 24 or 28 days, after withdrawal) | Entwicklung der Gonaden-Steroid Sekretion und der Follikel ([4]; 50 mg per day for 24 or 28 days, follicles by ultrasound) | menstrueller Zyklus ([4]; oral, patients with hypothalamic amenorrhoea) | Gonadotropin-Sekretion [4, 6] | Ovulation, Bildung eines Corpus luteum [4, 6] |
| --- | --- | --- | --- | --- | --- | --- | --- | --- | --- | --- | --- | --- | --- | --- |
| C=CCN1CC[C@]23c4c5ccc(O)c4OC2C(=O)CC[C@@]3(O)[C@H]1C5 (some centres unmarked) [Naloxon, 17-Allyl-4,5-epoxy-3,14-dihydroxymorphinan-6-on] | nicht oder nur in wesentlich geringerem Ausmaß | deutlichen Anstieg | deutliche Zunahme | – | – | – | – | – | – | – | – | – | – | – |
| O=C1CC[C@@]2(O)[C@H]3Cc4ccc(O)c5c4[C@@]2(CCN3CC2CC2)C1O5 (some centres unmarked) [Naltrexon, 17-(Cyclopropylmethyl)-4,5-epoxy-3,14-dihydroxymorphinan-6-on] | – | – | – | keinen Einfluß | keinen Einfluß | lange Verweildauer im Plasma | Zunahme | Zunahme | Eine von 3 | Sämtliche Patientinnen menstruierten | Zunahme | Normalisierung | Normalisierung | zur Ovulation und zur Bildung eines Corpus luteum |
